Here are results for 14 compounds from US9233978B2, “6-fused heteroaryldihydropyrimidines for the treatment and prophylaxis of hepatitis B virus infection” (Hoffmann-La Roche Inc., priority 2014, dated 2016).

One data set deals with HBV. As to the kind of experiment: Anti-HBV activity in vitro, HepG2.2.15 cells, extracellular HBV DNA by qPCR. Conditions: Hepatitis B virus, HepG2.2.15, 120 h, HepG2.2.15 cells; HBV replication inhibited by 50%, extracellular HBV DNA by qPCR; five days after compound treatment; read-out: EC50. The class given is cell-based. The text has this:
HepG2.2.15 and HepDE19 are stably-transfected cell lines containing the HBV genome. Both cell lines are derived from the hepatoblastoma cell line Hep G2 (American Type Culture Collection, ATCC® HB-8065™) by the published procedures described in references: MA Selles et al. Proc. Natl. Acad. Sci. USA 1987, 84, 1005-1009 and H Guo et al. Journal of Virology 2007, 81, 12472-12484, respectively. Both cell lines were maintained in Dulbecco's modified Eagle's medium (DMEM)-F12 medium supplemented with 10% fetal bovine serum, 100 U/mL penicillin, 100 μg/mL streptomycin, and 0.5 mg/mL of G418.
While HepG2.2.15 cells constitutively support HBV replication and production of virus particles, HepDE19 cells are inducible by tetracycline. Addition of 1 μg/mL tetracycline in culture medium suppresses HBV replication in HepDE19 cells, whereas switching to tetracycline-free medium resumes this process.
HepG2.2.15 cells were seeded into 96-well plates (3×10^4 cells in 100 μL media per well) and incubated overnight at 37° C. The test compounds were serially half-log diluted in DMSO, then diluted 100 times in culture media. 100 μL of diluted compounds were added into the plates to reach 0.5% final concentration of DMSO in every well. Five days after compound treatment, culture supernatant was collected for further analysis.
For quantitative PCR detection of extracellular HBV DNA, 100 μL of culture supernatant was collected and processed in MagNA Pure 96 Nucleic Acid Purification System (Roche Applied Science) for viral DNA extraction. The extracted samples were subjected to HBV DNA quantification by qPCR.
For orientation: Quantitative PCR measures a nucleic acid by following its amplification.

Data set [1] is described as follows: Human microsomal metabolic stability. The class given is in vitro ADME. Conditions: human microsomes 0.5 mg/mL, 1 μM test compound, NADPH, 37° C., pH 7.4, 0-30 minutes. Here is the method: Human Microsomes (BD Gentest) were preincubated with test compound for 10 minutes at 37° C. in 100 mM phosphate buffer, pH 7.4. The reactions were initiated by adding NADPH or NADPH regenerating system to give a final incubation volume of 400 μL. For NADPH system, the final incubations contained 1 μM test compound, 0.5 mg/mL liver microsomal protein, 1 mM NADPH in 100 mM phosphate buffer, pH 7.4. For the NADPH regenerating system, the final incubations contained 1 μM test compound, 0.5 mg/mL liver microsomal protein, 3 mM glucose 6-phosphate, 1 mM NADP, 3 mM MgCl2 and 0.05 mg/mL glucose 6-phosphate dehydrogenase in 100 mM phosphate buffer, pH 7.4. After incubation times of 0, 3, 6, 9, 15 and 30 minutes at 37° C., 1 sample was obtained from each time point and 50 μL of each sample was removed and transferred to 150 μL of methanol solution which was maintained at 4° C. and contained 2 μM tolbutamide as internal standard. Following precipitation and centrifugation, the amount of compound remaining in the samples were determined by LC-MS/MS. Controls of no NADPH or no NADPH regenerating system at zero and 30 minutes were also prepared and analyzed.

The next data set is described as follows: Lysa solubility. The data set is classed as physicochemical. Particulars: 0.05 M phosphate buffer (pH 6.5); for solubility thermodynamic: phosphate buffer, pH 6.5, aqueous buffer, thermodynamic from solid. Here is the method: Samples were prepared in duplicate from 10 mM DMSO stock solutions. After evaporation of DMSO with a centrifugal vacuum evaporator, the residue was solved in 0.05 M phosphate buffer (pH 6.5), stirred for one hour and shook for two hours. After one night, the solution was filtered using a microtiter filter plate. Then the filtrate and its 1/10 dilution were analyzed by direct UV measurement or by HPLC-UV. […] The results were in μg/mL. In case the percentage of sample measured in solution after evaporation divided by the calculated maximum of sample amount was over 80%, the solubility was reported as higher than this value.

SMILES strings stand for the structures. Converted amounts (≈) assume the structure as drawn.

In the case of `CCOC(=O)C1=C(CN2CCN3C(=O)N(c4ccccc4C(=O)O)C[C@@H]3C2)NC(c2nccs2)=N[C@H]1c1cccc(F)c1Cl` [Example 28, (R)-6-[(S)-2-(2-Carboxy-phenyl)-3-oxo-hexahydro-imidazo[1,5-a]pyrazin-7-ylmethyl]-4-(2-chloro-3-fluoro-phenyl)-2-thiazol-2-yl-1,4-dihydro-pyrimidine-5-carboxylic acid ethyl ester], in the data set with HBV, the EC50 (commonly the midpoint of the concentration-response curve) turned out to be 0.03 µM. Also, the “Human Microsomal Clearance” value in data set [1] is 0.264 L/h/kg. In the data set “Lysa solubility”, the solubility (thermodynamic) (as a rule, the concentration in solution at equilibrium with solid) came out at 0.337 mg/mL (≈ 527 µM).
In the case of `CCOC(=O)C1=C(CN2CCN3C(=O)N([C@@H]4CCCC4C(=O)O)C[C@@H]3C2)NC(c2nccs2)=N[C@H]1c1cccc(F)c1Cl` (stereo in doubt) [Example 50, (1R,2R)-2-[(8aS)-7-[[(4R)-4-(2-chloro-3-fluoro-phenyl)-5-ethoxycarbonyl-2-thiazol-2-yl-1,4-dihydropyrimidin-6-yl]methyl]-3-oxo-5,6,8,8a-tetrahydro-1H-imidazo[1,5-a]pyrazin-2-yl]cyclopentanecarboxylic acid], the EC50 with HBV is 0.015 µM. Besides, the “Human Microsomal Clearance” value in data set [1] is 0.216 L/h/kg. The thermodynamic solubility in “Lysa solubility” came out at 0.339 mg/mL (≈ 537 µM).
The like results for `COC(=O)C1=C(CN2CCN3C(=O)N([C@H]4C[C@H](C(=O)O)C4)C[C@@H]3C2)NC(c2nccs2)=N[C@H]1c1ccc(F)cc1Cl` [Example 39, 3-[(2S,8aR)-7-[[(4R)-4-(2-chloro-4-fluoro-phenyl)-5-methoxycarbonyl-2-thiazol-2-yl-1,4-dihydropyrimidin-6-yl]methyl]-3-oxo-5,6,8,8a-tetrahydro-1H-imidazo[1,5-a]pyrazin-2-yl]cyclobutanecarboxylic acid] were, in that order, 0.03 µM, 0.024 L/h/kg and > 0.77 mg/mL.
In the case of `CCOC(=O)C1=C(CN2CCN3C(=O)N(CC(C)C(=O)O)C[C@@H]3C2)NC(c2nccs2)=N[C@H]1c1ccccc1Cl` (stereo partly drawn) [Example 20, 3-[(8aS)-7-[[(4R)-4-(2-chlorophenyl)-5-ethoxycarbonyl-2-thiazol-2-yl-1,4-dihydropyrimidin-6-yl]methyl]-3-oxo-5,6,8,8a-tetrahydro-1H-imidazo[1,5-a]pyrazin-2-yl]-2-methyl-propanoic acid], the EC50 with HBV was determined as 0.052 µM. In addition, the “Human Microsomal Clearance” value in data set [1] came to 0.006 L/h/kg. Further, the thermodynamic solubility in “Lysa solubility” is > 0.78 mg/mL.
Consider `COC(=O)C1=C(CN2CCN3C(=O)N(CC(C)(C)C(=O)O)C[C@@H]3C2)NC(c2nccs2)=N[C@H]1c1ccccc1Cl` [Example 74, 3-[(8aS)-7-[[(4R)-4-(2-chlorophenyl)-5-methoxycarbonyl-2-thiazol-2-yl-1,4-dihydropyrimidin-6-yl]methyl]-3-oxo-5,6,8,8a-tetrahydro-1H-imidazo[1,5-a]pyrazin-2-yl]-2,2-dimethyl-propanoic acid], for which the EC50 in the data set on HBV turned out to be 0.036 µM. Moreover, the “Human Microsomal Clearance” value in data set [1] is 0.06 L/h/kg. In addition, in “Lysa solubility”, the thermodynamic solubility was > 0.716 mg/mL.
Take `COC(=O)C1=C(CN2CCN3C(=O)N(C(C)C)C[C@H]3[C@@H]2C(=O)O)NC(c2nccs2)=N[C@H]1c1ccc(F)c(F)c1C` (single isomer, unassigned) [Example 85A]: in the data set with HBV, the EC50 is 0.259 µM. In data set [1], the “Human Microsomal Clearance” value came to 0.294 L/h/kg. For the same compound, in “Lysa solubility”, the “Lysa” value was > 660 µg/mL.
As to `COC(=O)C1=C(CN2CCN3C(=O)N(CCCCC(=O)O)C[C@@H]3C2)NC(c2nccs2)=N[C@H]1c1ccc(F)cc1Cl` [Example 80, 5-[(8aS)-7-[[(4R)-4-(2-chloro-4-fluoro-phenyl)-5-methoxycarbonyl-2-thiazol-2-yl-1,4-dihydropyrimidin-6-yl]methyl]-3-oxo-5,6,8,8a-tetrahydro-1H-imidazo[1,5-a]pyrazin-2-yl]pentanoic acid], in the data set with HBV, the EC50 came to 0.032 µM. Besides, the “Human Microsomal Clearance” value in data set [1] amounted to 0.498 L/h/kg. Besides, the solubility (thermodynamic) in the data set “Lysa solubility” is > 0.616 mg/mL.
Take `CCOC(=O)C1=C(CN2CCN3C(=O)N(C4(CC(=O)O)CC4)CC3C2)NC(c2nccs2)=N[C@H]1c1cccc(F)c1Cl` (stereo in doubt) [Example 48, 2-[1-[(8aR)-7-[[(4R)-4-(2-chloro-3-fluoro-phenyl)-5-ethoxycarbonyl-2-thiazol-2-yl-1,4-dihydropyrimidin-6-yl]methyl]-3-oxo-5,6,8,8a-tetrahydro-1H-imidazo[1,5-a]pyrazin-2-yl]cyclopropyl]acetic acid]: the concentration for a half-maximal effect (EC50) with HBV worked out at 0.022 µM. Besides, in data set [1], the “Human Microsomal Clearance” value turned out to be 0.228 L/h/kg. Also, the solubility (thermodynamic) in “Lysa solubility” was > 0.807 mg/mL.
For `COC(=O)C1=C(CN2CCN3C(=O)N(C(C)(C)CC(=O)O)C[C@@H]3C2)NC(c2nccs2)=N[C@H]1c1ccc(F)c(F)c1C` [Example 37, 3-[(8aS)-7-[[(4S)-4-(3,4-difluoro-2-methyl-phenyl)-5-methoxycarbonyl-2-thiazol-2-yl-1,4-dihydropyrimidin-6-yl]methyl]-3-oxo-5,6,8,8a-tetrahydro-1H-imidazo[1,5-a]pyrazin-2-yl]-3-methyl-butanoic acid], in that order: 0.017 µM, 0.15 L/h/kg and 0.422 mg/mL (≈ 700 µM).
The like results for `COC(=O)C1=C(CN2CCN3C(=O)N(C4CCC(C(=O)O)CC4)C[C@@H]3C2)NC(c2nccs2)=N[C@H]1c1ccc(F)cc1Cl` (stereo partly drawn) [Example 72, 4-[(8aS)-7-[[(4R)-4-(2-chloro-4-fluoro-phenyl)-5-methoxycarbonyl-2-thiazol-2-yl-1,4-dihydropyrimidin-6-yl]methyl]-3-oxo-5,6,8,8a-tetrahydro-1H-imidazo[1,5-a]pyrazin-2-yl]cyclohexanecarboxylic acid] were, in that order, 0.009 µM, 0.312 L/h/kg and 0.551 mg/mL (≈ 873 µM).
Regarding `CCOC(=O)C1=C(CN2CCN3C(=O)N(C4CC4)C[C@H]3[C@@H]2C(=O)O)NC(c2nccs2)=N[C@H]1c1cccc(F)c1Cl` (single isomer, unassigned) [Example 82A], the EC50 in the data set with HBV was 0.145 µM. Moreover, the “Human Microsomal Clearance” value in data set [1] came out at 0.102 L/h/kg.
The like results for `COC(=O)C1=C(CN2CCN3C(=O)OC(C)(C)[C@]3(CC(=O)O)C2)NC(c2nccs2)=N[C@H]1c1ccc(F)cc1Cl` (single isomer, unassigned) [Example 90A] were, in that order, 0.096 µM and 0.018 L/h/kg.
The like results for `COC(=O)C1=C(CN2CCN3C(=O)N(c4cccc(C(=O)O)c4)C[C@@H]3C2)NC(c2nccs2)=N[C@H]1c1ccc(F)cc1Cl` [Example 29, (R)-6-[(S)-2-(3-Carboxy-phenyl)-3-oxo-hexahydro-imidazo[1,5-a]pyrazin-7-ylmethyl]-4-(2-chloro-4-fluoro-phenyl)-2-thiazol-2-yl-1,4-dihydro-pyrimidine-5-carboxylic acid methyl ester] were, in that order, 0.007 µM and 0.018 L/h/kg.
On to `COC(=O)C1=C(CN2CCN3C(=O)N(C4(CC(=O)O)CC4)CC3C2)NC(c2nccs2)=N[C@H]1c1ccc(F)cc1Cl` (stereo in doubt) [Example 47, 2-[1-[(8aR)-7-[[(4R)-4-(2-chloro-4-fluoro-phenyl)-5-methoxycarbonyl-2-thiazol-2-yl-1,4-dihydropyrimidin-6-yl]methyl]-3-oxo-5,6,8,8a-tetrahydro-1H-imidazo[1,5-a]pyrazin-2-yl]cyclopropyl]acetic acid], for which the EC50 in the data set with HBV is 0.051 µM. Further, the solubility (thermodynamic) in the data set “Lysa solubility” is > 0.767 mg/mL.
